This passage reports EC50 results from patent publication US9409866B2, “Pyridine-2-amides useful as CB2 agonists” (Hoffmann-La Roche Inc., priority 2012, dated 2016).

Read-outs that look alike come from different tables or passages of the source.

The target of experiment [1] is human CB2 receptors (Homo sapiens (Human), UniProt P34972). Put plainly: functional cAMP assay, CHO cells expressing human CB2. The class given is cell-based. In outline: (§1)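 CHO cells with human CB1 or CB2 were switched to Krebs Ringer bicarbonate buffer with 1 mM IBMX for 30 min at 30 °C, then given compound for 30 min at 30 °C. cAMP was measured by time-resolved FRET against a cAMP standard curve, and EC50 values were calculated.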
Chain of human CB2 receptors (P34972 whole entry): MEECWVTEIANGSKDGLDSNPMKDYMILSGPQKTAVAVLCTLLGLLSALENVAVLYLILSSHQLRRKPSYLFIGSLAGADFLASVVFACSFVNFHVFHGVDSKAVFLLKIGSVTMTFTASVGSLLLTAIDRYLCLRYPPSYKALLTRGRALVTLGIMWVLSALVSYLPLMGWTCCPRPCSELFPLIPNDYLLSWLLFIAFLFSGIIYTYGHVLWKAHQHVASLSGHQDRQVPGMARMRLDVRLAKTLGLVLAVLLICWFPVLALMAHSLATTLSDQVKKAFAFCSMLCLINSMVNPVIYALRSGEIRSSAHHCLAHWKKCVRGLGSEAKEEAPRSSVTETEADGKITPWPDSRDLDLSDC
A general note: Cyclic AMP is a second messenger, typically raised through Gs and lowered through Gi signalling.

For experiment [2], the target named is human CB1 receptors (Homo sapiens (Human), UniProt P21554). Put plainly: functional cAMP assay, CHO cells expressing human CB1. The class given is cell-based. The gist of the method: as §1
Chain of human CB1 receptors (P21554 whole entry): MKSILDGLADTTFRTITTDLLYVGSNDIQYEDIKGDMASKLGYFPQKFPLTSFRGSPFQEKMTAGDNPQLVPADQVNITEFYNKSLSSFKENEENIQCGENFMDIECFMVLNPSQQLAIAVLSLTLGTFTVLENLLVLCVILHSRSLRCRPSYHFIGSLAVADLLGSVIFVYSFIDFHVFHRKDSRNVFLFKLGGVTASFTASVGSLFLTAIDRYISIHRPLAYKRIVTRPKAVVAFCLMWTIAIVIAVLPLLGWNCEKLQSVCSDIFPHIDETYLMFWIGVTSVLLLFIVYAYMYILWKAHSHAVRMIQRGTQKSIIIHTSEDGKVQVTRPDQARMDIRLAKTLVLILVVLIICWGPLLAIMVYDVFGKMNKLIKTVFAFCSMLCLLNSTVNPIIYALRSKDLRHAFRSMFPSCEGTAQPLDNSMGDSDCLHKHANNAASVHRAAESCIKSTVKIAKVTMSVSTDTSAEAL
The mark [3] stands for this setting: functional cAMP assay, CHO cells expressing human CB1; read-out: Human CB1 EC50.
Where [4] appears, read: Human CB1 EC50 (uM), functional cAMP assay, CHO cells expressing human CB1.

As usually defined, the EC50 is the midpoint of the concentration-response curve. With `Cc1nc(C(C)(NC(=O)c2cc(O[C@@H](C)C(F)(F)F)c(N3CC(F)(F)C3)cn2)C2CC2)no1` (stereo partly drawn) [Example 96, 5-(3,3-Difluoro-azetidin-1-yl)-4-((S)-2,2,2-trifluoro-1-methyl-ethoxy)-pyridine-2-carboxylic acid [1-cyclopropyl-1-(5-methyl-[1,2,4]oxadiazol-3-yl)-ethyl]-amide], the EC50 in experiment [1] (read-out: Human CB2 EC50) turned out to be 0.0014 µM; in experiment [2] (setting [3]), 0.11 µM.

Turning to `O=C(NCC1(O)CCCCC1)c1cc(OCC2CC2)c(C2CC2)cn1` [Example 57, 5-Cyclopropyl-4-cyclopropylmethoxy-pyridine-2-carboxylic acid (1-hydroxy-cyclohexylmethyl)-amide], the EC50 in experiment [1] (read-out: Human CB2 EC50) is 0.013 µM; in experiment [2] (setting [3]) it was > 10 µM.

`CC1(C(NC(=O)c2cc(OCC(F)(F)F)c(C3CC3)cn2)C(N)=O)COC1` (single isomer, unassigned) [Example 268, N-[2-amino-1-(3-methyloxetan-3-yl)-2-oxoethyl]-5-cyclopropyl-4-(2,2,2-trifluoroethoxy)pyridine-2-carboxamide]: the EC50 was 0.225 µM in experiment [1] (Human CB2 EC50 (uM)) and > 10 µM in experiment [2] (setting [4]).

On to `Cc1nc(C(C)(CS(C)(=O)=O)NC(=O)c2cc(O[C@@H](C)C(F)(F)F)c(C3CC3)cn2)no1` (stereo partly drawn) [Example 103, 5-Cyclopropyl-4-((S)-2,2,2-trifluoro-1-methyl-ethoxy)-pyridine-2-carboxylic acid [2-methanesulfonyl-1-methyl-1-(5-methyl-[1,2,4]oxadiazol-3-yl)-ethyl]-amide], for which the EC50 came to 0.0034 µM in experiment [1] (read-out: Human CB2 EC50) and 0.48 µM in experiment [2] (setting [3]).

Consider `Cc1nc(C(C)(CS(C)(=O)=O)NC(=O)c2cc(OCC(F)(F)F)c(C3=CCC3)cn2)no1` (centres unmarked) [Example 127, 5-(cyclobuten-1-yl)-N-[2-(5-methyl-1,2,4-oxadiazol-3-yl)-1-methylsulfonylpropan-2-yl]-4-(2,2,2-trifluoroethoxy)pyridine-2-carboxamide], for which the EC50 in experiment [1] (read-out: Human CB2 EC50) was 0.0196 µM; in experiment [2] (setting [3]) it was > 10 µM.

For `Cc1nnc(C(NC(=O)c2cc(O[C@@H](C)C(F)(F)F)c(C3(F)COC3)cn2)C(C)(C)C)o1` (stereo partly drawn) [Example 175, N-[2,2-dimethyl-1-(5-methyl-1,3,4-oxadiazol-2-yl)propyl]-5-(3-fluorooxetan-3-yl)-4-[(2S)-1,1,1-trifluoropropan-2-yl]oxypyridine-2-carboxamide], the EC50 is 0.0955 µM in experiment [1] (read-out: Human CB2 EC50) and > 10 µM in experiment [2] (setting [3]).

With `CC(C)(C)C(NC(=O)c1cc(OCC2CC2)c(N2CC(F)(F)C2)cn1)C(N)=O` (single isomer, unassigned) [Example 260, N-[1-amino-3,3-dimethyl-1-oxobutan-2-yl]-4-(cyclopropylmethoxy)-5-(3,3-difluoroazetidin-1-yl)pyridine-2-carboxamide], the figures for the EC50 in experiment [1] (Human CB2 EC50 (uM)) and in experiment [2] (setting [4]) were 0.0209 µM and > 10 µM, respectively.

For the molecule `Cc1nc([C@](C)(CC2CC2)NC(=O)c2cc(OCC(F)(F)F)c(N3CC(F)(F)C3)cn2)no1` (single isomer, unassigned) [Example 92, 5-(3,3-Difluoro-azetidin-1-yl)-4-(2,2,2-trifluoro-ethoxy)-pyridine-2-carboxylic acid [2-cyclopropyl-1-methyl-1-(5-methyl-[1,2,4]oxadiazol-3-yl)-ethyl]-amide], the EC50 was 0.0214 µM in experiment [1] (Human CB2 EC50 (uM)) and > 10 µM in experiment [2] (setting [4]).

In the case of `CNC(=O)C(NC(=O)c1cc(OCC(F)(F)F)c(C2CC2)cn1)C(C)(C)O` (centres unmarked) [Example 236, 5-cyclopropyl-N-[3-hydroxy-3-methyl-1-(methylamino)-1-oxobutan-2-yl]-4-(2,2,2-trifluoroethoxy)pyridine-2-carboxamide], the EC50 in experiment [1] (read-out: Human CB2 EC50) was 0.0512 µM; in experiment [2] (setting [3]), > 10 µM.

For the molecule `Cc1nc([C@@](C)(CC2CC2)NC(=O)c2cc(OCC(F)(F)F)c(Cl)cn2)no1` (single isomer, unassigned) [Example 93, 5-Chloro-4-(2,2,2-trifluoro-ethoxy)-pyridine-2-carboxylic acid [2-cyclopropyl-1-methyl-1-(5-methyl-[1,2,4]oxadiazol-3-yl)-ethyl]-amide], the EC50 in experiment [1] (Human CB2 EC50 (uM)) was 0.0651 µM; in experiment [2] (setting [4]) it was > 10 µM.

On to `CC(C)(C)C(NC(=O)c1cc(OCC(F)(F)F)c(N2CC(F)(F)C2)cn1)C(N)=O` (centres unmarked) [Example 256, N-(1-amino-3,3-dimethyl-1-oxobutan-2-yl)-5-(3,3-difluoroazetidin-1-yl)-4-(2,2,2-trifluoroethoxy)pyridine-2-carboxamide], for which the EC50 in experiment [1] (read-out: Human CB2 EC50) is 0.0132 µM; in experiment [2] (setting [3]) it was > 10 µM.

Take `C[C@H](Oc1cc(C(=O)NC2(CC(N)=O)COC2)ncc1C1CC1)C(F)(F)F` [Example 64, 5-Cyclopropyl-4-((S)-2,2,2-trifluoro-1-methyl-ethoxy)-pyridine-2-carboxylic acid (3-carbamoylmethyl-oxetan-3-yl)-amide]: the EC50 was 0.515 µM in experiment [1] (read-out: Human CB2 EC50) and > 10 µM in experiment [2] (setting [3]).

As to `Cc1nc(C(C)(CC2CC2)NC(=O)c2cc(OCCF)c(C3CC3)cn2)no1` (single isomer, unassigned) [Example 157, 5-cyclopropyl-N-[1-cyclopropyl-2-(5-methyl-1,2,4-oxadiazol-3-yl)propan-2-yl]-4-(2-fluoroethoxy)pyridine-2-carboxamide], the EC50 in experiment [1] (Human CB2 EC50 (uM)) was 0.0036 µM; in experiment [2] (read-out: Human CB1 EC50; functional cAMP assay, CHO cells expressing human CB1) it was > 10 µM.

For `CNC(=O)CC(C)(NC(=O)c1cc(O[C@@H](C)C(F)(F)F)c(C2CC2)cn1)C1CC1` (stereo partly drawn) [Example 247, 5-cyclopropyl-N-[2-cyclopropyl-4-(methylamino)-4-oxobutan-2-yl]-4-[(2S)-1,1,1-trifluoropropan-2-yl]oxypyridine-2-carboxamide], the EC50 is 0.0193 µM in experiment [1] (read-out: Human CB2 EC50) and > 10 µM in experiment [2] (setting [3]).

As for `Cc1nc(C(NC(=O)c2cc(O[C@@H](C)C(F)(F)F)c(C3CC3)cn2)C(C)(C)C)no1` (stereo partly drawn) [Example 214, 5-cyclopropyl-N-[2,2-dimethyl-1-(5-methyl-1,2,4-oxadiazol-3-yl)propyl]-4-[(2S)-1,1,1-trifluoropropan-2-yl]oxypyridine-2-carboxamide], the EC50 was 0.008 µM in experiment [1] (read-out: Human CB2 EC50) and > 10 µM in experiment [2] (setting [3]).

For the molecule `CC(C)(C)C(NC(=O)c1cc(OCC(F)(F)F)c(C2CC2)cn1)c1nccs1` (centres unmarked) [Example 50, 5-Cyclopropyl-4-(2,2,2-trifluoro-ethoxy)-pyridine-2-carboxylic acid (2,2-dimethyl-1-thiazol-2-yl-propyl)-amide], the values for the EC50 in experiment [1] (read-out: Human CB2 EC50) and in experiment [2] (setting [3]) were 0.0058 µM and > 10 µM, respectively.

On to `NC(=O)CC1(NC(=O)c2cc(OCCF)c(C3CC3)cn2)CS(=O)(=O)C1` [Example 281, N-[3-(2-amino-2-oxoethyl)-1,1-dioxothietan-3-yl]-5-cyclopropyl-4-(2-fluoroethoxy)pyridine-2-carboxamide], for which the EC50 in experiment [1] (read-out: Human CB2 EC50) was 0.0231 µM; in experiment [2] (setting [3]) it was > 10 µM.

Turning to `Cc1nc(C(C)(CS(C)(=O)=O)NC(=O)c2cc(OCC(F)(F)F)c(Cl)cn2)no1` (centres unmarked) [Example 80, 5-Chloro-4-(2,2,2-trifluoro-ethoxy)-pyridine-2-carboxylic acid [2-methanesulfonyl-1-methyl-1-(5-methyl-[1,2,4]oxadiazol-3-yl)-ethyl]-amide], the figures for the EC50 in experiment [1] (read-out: Human CB2 EC50) and in experiment [2] (setting [3]) were 0.969 µM and > 10 µM, respectively.

For the molecule `CC1(COc2cc(C(=O)NC(C)(C)c3nnc(-c4ccccc4)o3)ncc2C2CC2)COC1` [Example 215, 5-cyclopropyl-4-[(3-methyloxetan-3-yl)methoxy]-N-[2-(5-phenyl-1,3,4-oxadiazol-2-yl)propan-2-yl]pyridine-2-carboxamide], the EC50 in experiment [1] (Human CB2 EC50 (uM)) was 0.0309 µM; in experiment [2] (setting [4]), > 10 µM.
